Measured values from ChEMBL document CHEMBL3994659, “Synthesis and antimicrobial evaluation of cationic low molecular weight amphipathic 1,2,3-triazoles” (Bioorg Med Chem Lett, 2017).
Activity calls are given as the source filed them. The rule behind the calls is not given here.

Columns and labels:
Enterococcus faecalis [1] = experiment: Antibacterial activity against Enterococcus faecalis ATCC 29212 after overnight incubation by photometric method; type: functional
Staphylococcus aureus = experiment: Antibacterial activity against Staphylococcus aureus ATCC 25923 after overnight incubation by photometric method; type: functional
Streptococcus agalactiae = experiment: Antibacterial activity against Streptococcus agalactiae group B ATCC 12386 after overnight incubation by photometric method; type: functional
MRC5 = experiment: Cytotoxicity against human MRC5 cells at <50 ug/ml; type: cell-based
[2] = tested on: Staphylococcus epidermidis; experiment: Inhibition of biofilm formation in Staphylococcus epidermidis at 50 ug/ml after overnight incubation by crystal violet staining based method; type: functional
Escherichia coli [3] = experiment: microbe, parasite or virus in culture; conditions: ATCC 25922
Description: Antibacterial activity against Escherichia coli ATCC 25922 after overnight incubation by photometric method

Pseudomonas aeruginosa [4] = experiment: microbe, parasite or virus in culture; conditions: ATCC 27853
Description: Antibacterial activity against Pseudomonas aeruginosa ATCC 27853 after overnight incubation by photometric method

Enterococcus faecalis [5] = experiment: Antibacterial activity against Enterococcus faecalis ATCC 29212 at 50 ug/ml after overnight incubation by photometric method; type: functional
Escherichia coli [6] = experiment: Antibacterial activity against Escherichia coli ATCC 25922 at 50 ug/ml after overnight incubation by photometric method; type: functional
Pseudomonas aeruginosa [7] = experiment: Antibacterial activity against Pseudomonas aeruginosa ATCC 27853 at 50 ug/ml after overnight incubation by photometric method; type: functional

For `CC(C)(C)c1cc(Cn2cc(CCCNC(=N)N)nn2)cc(C(C)(C)C)c1.Cl`, the MIC (Enterococcus faecalis [1]) was 40 mg/L, the MIC (Staphylococcus aureus) was 10 mg/L and the MIC (Streptococcus agalactiae) was 10 mg/L. For the same molecule, the Activity (MRC5) was “Non-Toxic”, the “biofilm formation inhibition (active/not active)” value [2] was “Active” and the MIC (Escherichia coli [3]) was 40 mg/L. It also gave an MIC (Pseudomonas aeruginosa [4]) of 40 mg/L.
In the case of `Cl.NCCCc1cn(Cc2ccc3ccccc3c2)nn1`, the Activity (MRC5) is reported as “Non-Toxic”.
In the case of `CN(C)CCc1cn(Cc2cc(C(C)(C)C)cc(C(C)(C)C)c2)nn1.Cl`, the Activity (MRC5) is reported as “Non-Toxic” and the “biofilm formation inhibition (active/not active)” value [2] is reported as “Active”.
`Cl.NCCc1cn(Cc2ccc3ccccc3c2)nn1` was tested, and the Activity (MRC5) was “Non-Toxic”.
For `Cl.N=C(N)NCCc1cn(Cc2ccccc2)nn1`, the Activity (MRC5) was “Non-Toxic”.
With `Cl.NCCCc1cn(Cc2ccccc2)nn1` the Activity (MRC5) was “Non-Toxic”.
`CN(C)CCc1cn(Cc2cc(C(F)(F)F)cc(C(F)(F)F)c2)nn1.Cl` was tested, and the Activity (MRC5) was “Non-Toxic”.
With `CC(C)(C)c1cc(-n2cc(CCCNC(=N)N)nn2)cc(C(C)(C)C)c1.Cl` the MIC (Enterococcus faecalis [1]) was 16 mg/L, the MIC (Staphylococcus aureus) was 4 mg/L and the MIC (Streptococcus agalactiae) was 4 mg/L. For the same molecule, the MIC (Escherichia coli [3]) was 16 mg/L and the MIC (Pseudomonas aeruginosa [4]) was 16 mg/L.
`CN(C)CCCc1cn(Cc2cc(C(F)(F)F)cc(C(F)(F)F)c2)nn1.Cl` was tested, and the Activity (MRC5) was “Non-Toxic”.
`CN(C)CCCc1cn(Cc2cc(C(C)(C)C)cc(C(C)(C)C)c2)nn1.Cl` was tested, and the MIC (Staphylococcus aureus) was 40 mg/L, the MIC (Streptococcus agalactiae) was 50 mg/L and the Activity (Enterococcus faecalis [5]) was “inactive”. The Activity (Escherichia coli [6]) was “inactive”, the Activity (Pseudomonas aeruginosa [7]) was “inactive” and the Activity (MRC5) was “Non-Toxic”. The “biofilm formation inhibition (active/not active)” value [2] was “Active”.
With `CC(C)(C)c1cc(Cn2cc(CCN)nn2)cc(C(C)(C)C)c1.Cl` the MIC (Staphylococcus aureus) was 40 mg/L, the MIC (Streptococcus agalactiae) was 40 mg/L and the Activity (Enterococcus faecalis [5]) was “inactive”. The Activity (MRC5) was “Non-Toxic”, the “biofilm formation inhibition (active/not active)” value [2] was “Active” and the MIC (Escherichia coli [3]) was 40 mg/L. It also gave an MIC (Pseudomonas aeruginosa [4]) of 50 mg/L.
For `Cl.N=C(N)NCCc1cn(Cc2ccc3ccccc3c2)nn1`, the Activity (MRC5) was “Non-Toxic”.
In the case of `Cl.N=C(N)NCCCc1cn(Cc2cc(C(F)(F)F)cc(C(F)(F)F)c2)nn1`, the Activity (MRC5) is reported as “Non-Toxic”.
`Cl.NCCc1cn(Cc2cc(C(F)(F)F)cc(C(F)(F)F)c2)nn1` was tested, and the Activity (MRC5) was “Non-Toxic”.
`Cl.N=C(N)NCCc1cn(Cc2cc(C(F)(F)F)cc(C(F)(F)F)c2)nn1` was tested, and the Activity (MRC5) was “Non-Toxic”.
For `CC(C)(C)c1cc(-n2cc(CCCN)nn2)cc(C(C)(C)C)c1.Cl`, the MIC (Enterococcus faecalis [1]) was 32 mg/L, the MIC (Staphylococcus aureus) was 16 mg/L and the MIC (Streptococcus agalactiae) was 16 mg/L. For the same molecule, the MIC (Escherichia coli [3]) was 16 mg/L and the MIC (Pseudomonas aeruginosa [4]) was 32 mg/L.
For `CN(C)CCCc1cn(Cc2ccc3ccccc3c2)nn1.Cl`, the Activity (MRC5) was “Non-Toxic”.
For `Cl.NCCc1cn(Cc2ccccc2)nn1`, the Activity (MRC5) was “Non-Toxic”.
`CN(C)CCCc1cn(Cc2ccccc2)nn1.Cl` was tested, and the Activity (MRC5) was “Non-Toxic”.
For `Cl.NCCCc1cn(Cc2cc(C(F)(F)F)cc(C(F)(F)F)c2)nn1`, the Activity (MRC5) was “Non-Toxic”.
For `CC(C)(C)c1cc(Cn2cc(CCCN)nn2)cc(C(C)(C)C)c1.Cl`, the Activity (MRC5) was “Non-Toxic” and the “biofilm formation inhibition (active/not active)” value [2] was “inactive”.
For GENTAMICIN, the MIC (Enterococcus faecalis [1]) was 10 mg/L, the MIC (Staphylococcus aureus) was 0.13 mg/L and the MIC (Streptococcus agalactiae) was 4 mg/L.
For `Cl.N=C(N)NCCCc1cn(Cc2ccc3ccccc3c2)nn1`, the Activity (MRC5) was “Non-Toxic” and the “biofilm formation inhibition (active/not active)” value [2] was “Active”.
In the case of `Cl.N=C(N)NCCCc1cn(Cc2ccccc2)nn1`, the Activity (MRC5) is reported as “Non-Toxic”.
In the case of `CN(C)CCc1cn(Cc2ccccc2)nn1.Cl`, the Activity (MRC5) is reported as “Non-Toxic”.
`CC(C)(C)c1cc(Cn2cc(CCNC(=N)N)nn2)cc(C(C)(C)C)c1.Cl` was tested, and the MIC (Enterococcus faecalis [1]) was 40 mg/L, the MIC (Staphylococcus aureus) was 20 mg/L and the MIC (Streptococcus agalactiae) was 10 mg/L. The Activity (MRC5) was “Non-Toxic”, the “biofilm formation inhibition (active/not active)” value [2] was “Active” and the MIC (Escherichia coli [3]) was 50 mg/L. It also gave an MIC (Pseudomonas aeruginosa [4]) of 40 mg/L.
`CCCCCCCOc1ccc(-n2cc(CCCN)nn2)cc1.Cl` showed an MIC (Enterococcus faecalis [1]) of 16 mg/L, an MIC (Staphylococcus aureus) of 16 mg/L and an MIC (Streptococcus agalactiae) of 8 mg/L. For the same molecule, the MIC (Escherichia coli [3]) was 8 mg/L and the MIC (Pseudomonas aeruginosa [4]) was 16 mg/L.
For `CN(C)CCc1cn(Cc2ccc3ccccc3c2)nn1.Cl`, the Activity (MRC5) was “Non-Toxic”.
`CCCCCCCOc1ccc(-n2cc(CCCNC(=N)N)nn2)cc1.Cl` was tested, and the MIC (Enterococcus faecalis [1]) was 8 mg/L, the MIC (Staphylococcus aureus) was 4 mg/L and the MIC (Streptococcus agalactiae) was 4 mg/L. It also gave an MIC (Escherichia coli [3]) of 8 mg/L and an MIC (Pseudomonas aeruginosa [4]) of 8 mg/L.
